Measurements taken from US20240140941A1, “DERIVATIVE OF 2,5-DIKETOPIPERAZINE COMPOUND, AND PREPARATION METHOD THEREFOR, PHARMACEUTICAL COMPOSITION THEREOF AND USE THEREOF” (DALIAN WZ PROBIOTICS AD HEALTH CO., LTD, priority 2020, published 2024).
Counter-ions that a name gives are not always drawn. Like-named read-outs stand apart in the source and are kept apart here.

What was measured:
Format in all cases: cell-based, human
NCI-H460 = experiment: Inhibition test on cell proliferation (MTT), NCI-H460
Method: (§1) Tumor cells (NCI-H460, BxPC-3, HT-29, HCC-LM3) in the logarithmic growth phase were digested, centrifuged, and the supernatants were removed. Cells were resuspended by adding fresh culture medium, and counted using a cell counting plate. 100 μL of culture medium (containing cells) was added to a 96-well plate according to the standard of 2000 to 6000 cells per well and incubated in an incubator (37° C., 5% CO2) for 24 hours. After the cells were completely adhered to the wall, the test sample and Plinabulin were diluted to different concentrations using fresh culture medium, and 4 wells were set for each concentration. After 72 hours of drug treatment, the culture medium was removed, and 20 μL of MTT at a concentration of 5 mg/mL was added to each well. After 3-4 hours in the incubator, the MTT was discarded, and 100 μL of DMSO was added to each well, and placed in a 96-well plate shaker to completely dissolve the purple formazan. Subsequently, the absorbance (OD value) was detected at a wavelength of 490 nm using a microplate reader. The experiment also required setting up zero-setting wells (blank culture medium, MTT, DMSO). Cell inhibition rate=1−(OD value of drug-dosed group−OD value of zero-setting group)/(OD value of blank group−OD value of zero-setting group)×100%.

BxPC-3 = experiment: Inhibition test on cell proliferation (MTT), BxPC-3; details: read-out: IC50 (nM) BxPC-3
Method: as §1

HCC-LM3 = experiment: Inhibition test on cell proliferation (MTT), HCC-LM3; details: read-out: IC50 (nM) HCC-LM3
Method: as §1

[1] = Homo sapiens, NCI-H460, 72 h, 72 hours of drug treatment, MTT, read-out: IC50 (nM) NCI-H460
[2] = Homo sapiens, BXPC-3, 72 h, 72 hours of drug treatment, MTT
[3] = Homo sapiens, HCCLM3, 72 h, 72 hours of drug treatment, MTT
[4] = Homo sapiens, NCI-H460, 72 h, read-out: IC50 (nM) NCI-H460, 72 hours of drug treatment, MTT
[5] = 72 hours of drug treatment, MTT, mesylate
[6] = 72 hours of drug treatment, MTT, read-out: IC50 (nM) NCI-H460
[7] = 72 hours of drug treatment, MTT

Row | SMILES | IC50 (NCI-H460; [1]) | IC50 (BxPC-3; [2]) | further results
1 | CC(=O)N1CCN(CCCn2cnc(/C=c3\[nH]c(=O)/c(=C/c4cccc(F)c4)[nH]c3=O)c2C(C)C)CC1 [PLN-2-64, (3Z,6Z)-3-(3-Fluorophenyl)methylene-6-(5-isopropyl-1-(3-(4-(acetyl)piperazinyl)propylimidazol-4-yl)methylene)piperazine-2,5-dione] | 18.5 ± 0.3 nM | 7.7 ± 0.39 nM | IC50 (HCC-LM3; [3]): 26.1 ± 2.14 nM
2 | CCCC(=O)N1CCN(CCCn2cnc(/C=c3\[nH]c(=O)/c(=C/c4cccc(F)c4)[nH]c3=O)c2C(C)C)CC1 [PLN-2-66, (3Z,6Z)-3-(3-Fluorophenyl)methylene-6-(5-isopropyl-1-(3-(4-(n-butyryl)piperazinyl)propylimidazol-4-yl)methylene)piperazine-2,5-dione] | – | – | IC50 (NCI-H460; [4]): 40.3 ± 3.72 nM; IC50 (BxPC-3; Homo sapiens, BXPC-3, 72 h): 30.4 ± 0.35 nM; IC50 (HCC-LM3; Homo sapiens, HCCLM3, 72 h): 43.9 ± 7.94 nM
3 | CC1CN(CCCn2cnc(/C=c3\[nH]c(=O)/c(=C/c4cccc(C(=O)c5ccc(F)cc5)c4)[nH]c3=O)c2C2CC2)CC(C)O1 (centres unmarked) [PLN-2-14, (3Z,6Z)-3-(3-(p-fluorobenzoyl)phenyl)methylene-6-((5-cyclopropyl-1-((2,6-dimethyl)-3-morpholinyl)propylimidazol-4-yl)methylene)piperazine-2,5-dione] | 9.33 ± 0.54 nM | 9.33 ± 0.45 nM | –
4 | CC(CN1CCOCC1)Cn1cnc(/C=c2\[nH]c(=O)/c(=C/c3cccc(F)c3)[nH]c2=O)c1C(C)C (centres unmarked) [PLN-2-67, (3Z,6Z)-3-(3-Fluorophenyl)methylene-6-((5-isopropyl-1-(3-morpholinyl)-2-methylpropylimidazol-4-yl)methylene)piperazine-2,5-dione] | 8.39 ± 0.58 nM | 3.73 ± 0.06 nM | IC50 (HCC-LM3; [3]): 7.7 ± 0.04 nM
5 | CC(C)c1c(/C=c2\[nH]c(=O)/c(=C/c3ccc(F)c(F)c3)[nH]c2=O)ncn1CCCN1CCOCC1 [PLN-2-63-2, (3Z,6Z)-3-(3,4-Difluorophenyl)methylene-6-((5-isopropyl-1-(3-morpholinyl)propylimidazol-4-yl)methylene)piperazine-2,5-dione, mesylate] | – | – | IC50 (NCI-H460; 72 hours of drug treatment, MTT, mesylate, read-out: IC50 (nM) NCI-H460): 95.9 ± 3.66 nM; IC50 (BxPC-3; [5]): 50.9 ± 6.75 nM; IC50 (HCC-LM3; [5]): 69.5 ± 4.26 nM
6 | CCC(=O)N1CCN(CCCn2cnc(/C=c3\[nH]c(=O)/c(=C/c4cccc(C(=O)c5ccc(F)cc5)c4)[nH]c3=O)c2C(C)C)CC1 [PLN-2-31, (3Z,6Z)-3-(3-(p-fluorobenzoyl)phenyl)methylene-6-((5-isopropyl-1-(3-N-propionylpiperazinyl)propylimidazol-4-yl)methylene)piperazine-2,5-dione] | 6.93 ± 0.96 nM | 2.48 ± 0.57 nM | –
7 | CC(=O)N1CCN(CCCn2cnc(/C=c3\[nH]c(=O)/c(=C/c4cccc(C(=O)c5ccc(F)cc5)c4)[nH]c3=O)c2C(C)C)CC1 [PLN-2-30, (3Z,6Z)-3-(3-(p-fluorobenzoyl)phenyl)methylene-6-((5-isopropyl-1-(3-N-acetylpiperazinyl)propylimidazol-4-yl)methylene)piperazine-2,5-dione] | 3.98 ± 0.33 nM | 2.3 ± 0.08 nM | –
8 | CC(C)NC(=O)N1CCN(CCCn2cnc(/C=c3\[nH]c(=O)/c(=C/c4cccc(C(=O)c5ccc(F)cc5)c4)[nH]c3=O)c2C(C)C)CC1 [PLN-2-44, (3Z,6Z)-3-(3-(p-fluorobenzoyl)phenyl)methylene-6-((5-isopropyl-1-(3-N-isopropylaminocarbonylpiperazinyl)propylimidazol-4-yl)methylene)piperazine-2,5-dione] | 8.68 ± 0.78 nM | 3.84 ± 0.12 nM | –
9 | CC(C)c1c(/C=c2\[nH]c(=O)/c(=C/c3cccc(C(=O)c4ccc(F)cc4)c3)[nH]c2=O)ncn1CCCN1CCN(C(=O)C2CCCC2)CC1 [PLN-2-37, (3Z,6Z)-3-(3-(p-fluorobenzoyl)phenyl)methylene-6-((5-isopropyl-1-(3-N-cyclopentnecarbonylpiperazinyl)propylimidazol-4-yl)methylene)piperazine-2,5-dione] | – | – | IC50 (NCI-H460; [4]): 7.86 ± 1.37 nM; IC50 (BxPC-3; Homo sapiens, BXPC-3, 72 h): 6.23 ± 0.15 nM
10 | CC(C)c1c(/C=c2\[nH]c(=O)/c(=C/c3cccc(C(=O)c4ccc(F)cc4)c3)[nH]c2=O)ncn1CCCN1CCN(S(C)(=O)=O)CC1 [PLN-2-42, (3Z,6Z)-3-(3-(p-fluorobenzoyl)phenyl)methylene-6-((5-isopropyl-1-(3-N-methylsulfonylpiperazinyl)propylimidazol-4-yl)methylene)piperazine-2,5-dione] | – | – | IC50 (NCI-H460; [4]): 6.59 ± 1.29 nM; IC50 (BxPC-3; Homo sapiens, BXPC-3, 72 h): 3.38 ± 0.53 nM
11 | CC(C)c1c(/C=c2\[nH]c(=O)/c(=C/c3cc(F)ccc3F)[nH]c2=O)ncn1CCCN1CCN(C(=O)OC(C)(C)C)CC1 [PLN-2-48] | 39.2 ± 1.85 nM | 33.1 ± 0.98 nM | –
12 | CC(C)c1c(/C=c2\[nH]c(=O)/c(=C/c3cccc(C(=O)c4ccc(F)cc4)c3)[nH]c2=O)ncn1CCCN1CCN(C(=O)NC2CCCCC2)CC1 [PLN-2-47, (3Z,6Z)-3-(3-(p-fluorobenzoyl)phenyl)methylene-6-((5-isopropyl-1-(3-N-cyclohexylaminocarbonylpiperazinyl)propylimidazol-4-yl)methylene)piperazine-2,5-dione] | 6.56 ± 0.32 nM | 3.62 ± 0.48 nM | –
13 | CCC(=O)N1CCN(CCCn2cnc(/C=c3\[nH]c(=O)/c(=C/c4cccc(F)c4)[nH]c3=O)c2C(C)C)CC1 [PLN-2-65, (3Z,6Z)-3-(3-Fluorophenyl)methylene-6-(5-isopropyl-1-(3-(4-(propionyl)piperazinyl)propylimidazol-4-yl)methylene)piperazine-2,5-dione] | 17.4 ± 1.45 nM | 10.3 ± 2.18 nM | IC50 (HCC-LM3; [3]): 20.9 ± 0.97 nM
14 | CC(C)c1c(/C=c2\[nH]c(=O)/c(=C/c3cc(F)ccc3F)[nH]c2=O)ncn1CCCN1CCNCC1 [PLN-2-20, (3Z,6Z)-3-(2,5-difluorophenyl)methylene-6-((5-isopropyl-1-(3-piperazinyl)propylimidazol-4-yl)methylene)piperazine-2,5-dione] | 147 ± 14.5 nM | 91.63 ± 0.62 nM | –
15 | CC1CN(CCCn2cnc(/C=c3\[nH]c(=O)/c(=C/c4cccc(C(=O)c5ccc(F)cc5)c4)[nH]c3=O)c2C(C)C)CC(C)O1 (centres unmarked) [PLN-2-12, (3Z,6Z)-3-(3-(p-fluorobenzoyl)phenyl)methylene-6-((5-isopropyl-1-((2,6-dimethyl)-3-morpholinyl)propylimidazol-4-yl)methylene)piperazine-2,5-dione] | – | – | IC50 (NCI-H460; [6]): 3.77 ± 0.62 nM; IC50 (BxPC-3; [7]): 2.48 ± 2.12 nM
16 | CCC(CC)C(=O)N1CCN(CCCn2cnc(/C=c3\[nH]c(=O)/c(=C/c4cccc(C(=O)c5ccc(F)cc5)c4)[nH]c3=O)c2C(C)C)CC1 [PLN-2-34, (3Z,6Z)-3-(3-(p-fluorobenzoyl)phenyl)methylene-6-((5-isopropyl-1-(3-N-(2-ethylbutyryl)piperazinyl)propylimidazol-4-yl)methylene)piperazine-2,5-dione] | 20.1 ± 3.67 nM | 17.5 ± 0.27 nM | –
17 | CC(C)c1c(/C=c2\[nH]c(=O)/c(=C/c3cccc(Oc4ccc(F)cc4)c3)[nH]c2=O)ncn1CCCN1CCN(C(=O)OC(C)(C)C)CC1 [PLN-2-17, (3Z,6Z)-3-(3-(4-Fluorophenoxy)phenyl)methylene-6-((5-isopropyl-1-(3-N-tert-butoxycarbonylpiperazinyl)propylimidazol-4-yl)methylene)piperazine-2,5-dione] | 41.8 ± 2.27 nM | 21.1 ± 2.41 nM | –
18 | CC(C)C(=O)N1CCN(CCCn2cnc(/C=c3\[nH]c(=O)/c(=C/c4cccc(C(=O)c5ccc(F)cc5)c4)[nH]c3=O)c2C(C)C)CC1 [PLN-2-32, (3Z,6Z)-3-(3-(p-fluorobenzoyl)phenyl)methylene-6-((5-isopropyl-1-(3-N-isobutyrylpiperazinyl)propylimidazol-4-yl)methylene)piperazine-2,5-dione] | 7.95 ± 1.29 nM | 4.16 ± 0.78 nM | –
19 | CC1CN(CCCn2cnc(/C=c3\[nH]c(=O)/c(=C/c4cccc(C(=O)c5ccc(F)cc5)c4)[nH]c3=O)c2C(C)C)CC(C)O1 (centres unmarked) [PLN-2-13, (3Z,6Z)-3-(3-(p-fluorobenzoyl)phenyl)methylene-6-((5-isopropyl-1-((2,6-dimethyl)-3-morpholinyl)propylimidazol-4-yl)methylene)piperazine-2,5-dione] | – | – | IC50 (NCI-H460; [6]): 8.2 ± 0.54 nM; IC50 (BxPC-3; [7]): 14.9 ± 2.62 nM
20 | CC(C)c1c(/C=c2\[nH]c(=O)/c(=C/c3cccc(Oc4ccc(F)cc4)c3)[nH]c2=O)ncn1CCCN1CCN(C)CC1 [PLN-2-22, (3Z,6Z)-3-(3-(p-fluorophenoxy)phenyl)methylene-6-((5-isopropyl-1-(3-N-methylpiperazinyl)propylimidazol-4-yl)methylene)piperazine-2,5-dione] | 85.7 ± 10.6 nM | 66.2 ± 1.45 nM | –
21 | CC(C)c1c(/C=c2\[nH]c(=O)/c(=C/c3cccc(C(=O)c4ccc(F)cc4)c3)[nH]c2=O)ncn1CCCN1CCN(C(=O)C(C)(C)C)CC1 [PLN-2-33, (3Z,6Z)-3-(3-(p-fluorobenzoyl)phenyl)methylene-6-((5-isopropyl-1-(3-N-tert-butyrylpiperazinyl)propylimidazol-4-yl)methylene)piperazine-2,5-dione] | – | – | IC50 (NCI-H460; [4]): 9.91 ± 2 nM; IC50 (BxPC-3; Homo sapiens, BXPC-3, 72 h): 6.39 ± 2.51 nM
